Among the data in PubChem BioAssay (NCI) are TGI values, retold here.

Among the test systems are DU-145 prostate; KM12 colon; HS 578T breast; LOX IMVI melanoma; HT29 colon; OVCAR-8 ovarian; A549 NSCLC; SK-OV-3 ovarian; COLO 205 colon; MOLT-4 leukemia; PC-3 prostate; SK-MEL-5 melanoma.
What all share (test): NCI-60 cell line screen, 48 h

Each structure is given as a SMILES string.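 Grown in 96-well plates, cells were treated for 48 hours with each compound at five concentrations. Insufficient inhibition: endpoint recorded as highest concentration tested. Definition used: TGI = concentration required for complete inhibition of growth.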 Some results are limits rather than exact numbers.

In the case of `CSc1ncnc2c1ncn2C1CC(Oc2ccc(C)cc2)C(COc2ccc(C)cc2)O1` (configuration not stated), the TGI with DU-145 prostate, in the assay with KM12 colon, in the assay with HS 578T breast, with LOX IMVI melanoma, in the assay on HT29 colon and in the assay with OVCAR-8 ovarian was more than 100 µM each time. The TGI with A549 NSCLC, with SK-OV-3 ovarian, in the assay with COLO 205 colon, with MOLT-4 leukemia, in the assay with PC-3 prostate and with SK-MEL-5 melanoma was more than 100 µM in each case.
Regarding `O=c1cc(-c2ccc(F)cc2)[nH]c2ncc(Cl)cc12`, the TGI was more than 74.4 µM in the assay on DU-145 prostate; more than 100 µM in the assay on KM12 colon; 85 µM in the assay on HS 578T breast; more than 100 µM in the assay with LOX IMVI melanoma; more than 100 µM in the assay on HT29 colon; more than 100 µM with OVCAR-8 ovarian. In addition, the TGI in the assay on A549 NSCLC is more than 100 µM; in the assay with SK-OV-3 ovarian it was more than 100 µM; with COLO 205 colon, more than 100 µM; in the assay with MOLT-4 leukemia, more than 85.6 µM; with PC-3 prostate, more than 100 µM; in the assay on SK-MEL-5 melanoma, more than 100 µM.
Take `CC12C(=O)CC(CC1=O)C2(C)C`: the TGI in the assay on DU-145 prostate, in the assay with KM12 colon, in the assay with HS 578T breast, in the assay on LOX IMVI melanoma, with HT29 colon and in the assay on OVCAR-8 ovarian was more than 100 µM each time. The TGI in the assay with A549 NSCLC, in the assay with SK-OV-3 ovarian, in the assay on COLO 205 colon, with MOLT-4 leukemia, with PC-3 prostate and in the assay with SK-MEL-5 melanoma was more than 100 µM each time.
For `Oc1ccc(-c2nc(-c3cccnc3)c(-c3ccc(Cl)cc3)[nH]2)cc1`, the TGI with DU-145 prostate stood at 29.4 µM; with KM12 colon it was 25.7 µM; in the assay with HS 578T breast it was 56 µM; in the assay on LOX IMVI melanoma it was 24 µM; with HT29 colon, 28.4 µM; in the assay on OVCAR-8 ovarian it was 28.4 µM. The TGI with A549 NSCLC is 30.1 µM; in the assay on SK-OV-3 ovarian, 26.8 µM; with COLO 205 colon it was 23.9 µM; in the assay with MOLT-4 leukemia, 18.1 µM; with PC-3 prostate, 19.5 µM; in the assay with SK-MEL-5 melanoma, 27.2 µM.
For `CCOC(=O)c1cc(C(O)P2(=O)N(CC(C)(C)C)[C@@H]3CCCC[C@H]3N2CC(C)(C)C)cn1C(=O)OC(C)(C)C` (some centres not stated), the TGI is 36.2 µM in the assay with DU-145 prostate; 29.2 µM with KM12 colon; 36.1 µM with HS 578T breast; 31.4 µM in the assay with LOX IMVI melanoma; 26.7 µM in the assay on HT29 colon; 47.1 µM in the assay on OVCAR-8 ovarian. Also, the TGI with A549 NSCLC was found to be 38.8 µM; in the assay on SK-OV-3 ovarian it was 59.2 µM; in the assay with COLO 205 colon it was 31.4 µM; with MOLT-4 leukemia, 34 µM; with PC-3 prostate, 48.5 µM; in the assay with SK-MEL-5 melanoma, 31.3 µM.
With `CC(C)(C)OC(=O)NC(Cc1ccc(OCc2ccccc2)cn1)C(=O)N1CCCCC1` (configuration not stated), the TGI in the assay with DU-145 prostate is more than 100 µM; in the assay with KM12 colon it was more than 100 µM; in the assay on HS 578T breast, more than 100 µM; in the assay with LOX IMVI melanoma, 71 µM; in the assay with HT29 colon it was more than 100 µM; in the assay with OVCAR-8 ovarian it was more than 100 µM. Also, the TGI is more than 100 µM with A549 NSCLC; more than 100 µM in the assay with SK-OV-3 ovarian; 33.3 µM with COLO 205 colon; 47.7 µM in the assay on MOLT-4 leukemia; 55.2 µM in the assay with PC-3 prostate; 31 µM with SK-MEL-5 melanoma.
`C=CC(CCc1ccc(C(=O)OCC)cc1)c1c(N)nc(N)[nH]c1=O` (configuration not stated): the TGI in the assay with DU-145 prostate, in the assay with KM12 colon, in the assay with HS 578T breast, with LOX IMVI melanoma, with HT29 colon and with OVCAR-8 ovarian was more than 100 µM throughout. Also, the TGI in the assay with A549 NSCLC, with SK-OV-3 ovarian, with COLO 205 colon, with MOLT-4 leukemia, with PC-3 prostate and with SK-MEL-5 melanoma was more than 100 µM in each case.
`c1ccc2c(c1)ccn2CCc1c[nH]c2ccccc12`: the TGI in the assay with DU-145 prostate, in the assay with KM12 colon, in the assay with HS 578T breast, in the assay on LOX IMVI melanoma, in the assay with HT29 colon and with OVCAR-8 ovarian was more than 10 µM each time. Besides, the TGI in the assay with A549 NSCLC, in the assay on SK-OV-3 ovarian, in the assay on COLO 205 colon, in the assay with MOLT-4 leukemia, with PC-3 prostate and in the assay with SK-MEL-5 melanoma was more than 10 µM in each case.
Regarding `O=C1C=C(C2=CC(=O)C(=O)c3ccccc32)c2ccccc2C1=O`, the TGI with DU-145 prostate is 29.4 µM; with KM12 colon it was 39.8 µM; in the assay on HS 578T breast, 90.7 µM; in the assay with LOX IMVI melanoma it was more than 100 µM; in the assay with HT29 colon it was more than 100 µM; in the assay with OVCAR-8 ovarian, 75.7 µM. For the same compound, the TGI with A549 NSCLC is more than 100 µM; with SK-OV-3 ovarian, more than 100 µM; with COLO 205 colon, 38.9 µM; in the assay with MOLT-4 leukemia, 15.4 µM; in the assay on PC-3 prostate, 37.3 µM; in the assay with SK-MEL-5 melanoma, 8.17 µM.
`CC(=O)OC(/C=C/c1ccccc1)=C(OC(C)C)/C1=C(\c2ccccc2)SCCCSC1=O`: the TGI in the assay on DU-145 prostate, in the assay with KM12 colon, with HS 578T breast, with LOX IMVI melanoma, with HT29 colon and in the assay with OVCAR-8 ovarian was more than 100 µM each time. Further, the TGI with A549 NSCLC, with SK-OV-3 ovarian, in the assay with COLO 205 colon, in the assay on MOLT-4 leukemia, in the assay on PC-3 prostate and in the assay on SK-MEL-5 melanoma was more than 100 µM throughout.
In the case of `Nc1cc2[nH]c(=O)c(=O)[nH]c2cc1N`, the TGI with DU-145 prostate, in the assay on KM12 colon, in the assay with HS 578T breast, in the assay on LOX IMVI melanoma, with HT29 colon and with OVCAR-8 ovarian was more than 100 µM throughout. For the same compound, the TGI in the assay on A549 NSCLC, in the assay on SK-OV-3 ovarian, with COLO 205 colon, in the assay on MOLT-4 leukemia, in the assay on PC-3 prostate and in the assay with SK-MEL-5 melanoma was more than 100 µM throughout.
